Source: ChEMBL document CHEMBL1201862, “PubChem BioAssay data set” (2004)
Values joined by “and” are separate entries in the source; they are usually repeats but may differ in a detail not shown here. Equal values may be shown once. Active and inactive are the calls of the source.

Columns and labels:
Assay type in all cases: functional
[1] = molecular target: T1, Apoptotic protease-activating factor 1 (Homo sapiens, UniProt O14727); assay: SAR analysis of small molecule Activators of Apaf-1 in a Fluorescent assay - set 2.; details: read-out: EC50_Mean
T1 sequence (O14727 whole entry): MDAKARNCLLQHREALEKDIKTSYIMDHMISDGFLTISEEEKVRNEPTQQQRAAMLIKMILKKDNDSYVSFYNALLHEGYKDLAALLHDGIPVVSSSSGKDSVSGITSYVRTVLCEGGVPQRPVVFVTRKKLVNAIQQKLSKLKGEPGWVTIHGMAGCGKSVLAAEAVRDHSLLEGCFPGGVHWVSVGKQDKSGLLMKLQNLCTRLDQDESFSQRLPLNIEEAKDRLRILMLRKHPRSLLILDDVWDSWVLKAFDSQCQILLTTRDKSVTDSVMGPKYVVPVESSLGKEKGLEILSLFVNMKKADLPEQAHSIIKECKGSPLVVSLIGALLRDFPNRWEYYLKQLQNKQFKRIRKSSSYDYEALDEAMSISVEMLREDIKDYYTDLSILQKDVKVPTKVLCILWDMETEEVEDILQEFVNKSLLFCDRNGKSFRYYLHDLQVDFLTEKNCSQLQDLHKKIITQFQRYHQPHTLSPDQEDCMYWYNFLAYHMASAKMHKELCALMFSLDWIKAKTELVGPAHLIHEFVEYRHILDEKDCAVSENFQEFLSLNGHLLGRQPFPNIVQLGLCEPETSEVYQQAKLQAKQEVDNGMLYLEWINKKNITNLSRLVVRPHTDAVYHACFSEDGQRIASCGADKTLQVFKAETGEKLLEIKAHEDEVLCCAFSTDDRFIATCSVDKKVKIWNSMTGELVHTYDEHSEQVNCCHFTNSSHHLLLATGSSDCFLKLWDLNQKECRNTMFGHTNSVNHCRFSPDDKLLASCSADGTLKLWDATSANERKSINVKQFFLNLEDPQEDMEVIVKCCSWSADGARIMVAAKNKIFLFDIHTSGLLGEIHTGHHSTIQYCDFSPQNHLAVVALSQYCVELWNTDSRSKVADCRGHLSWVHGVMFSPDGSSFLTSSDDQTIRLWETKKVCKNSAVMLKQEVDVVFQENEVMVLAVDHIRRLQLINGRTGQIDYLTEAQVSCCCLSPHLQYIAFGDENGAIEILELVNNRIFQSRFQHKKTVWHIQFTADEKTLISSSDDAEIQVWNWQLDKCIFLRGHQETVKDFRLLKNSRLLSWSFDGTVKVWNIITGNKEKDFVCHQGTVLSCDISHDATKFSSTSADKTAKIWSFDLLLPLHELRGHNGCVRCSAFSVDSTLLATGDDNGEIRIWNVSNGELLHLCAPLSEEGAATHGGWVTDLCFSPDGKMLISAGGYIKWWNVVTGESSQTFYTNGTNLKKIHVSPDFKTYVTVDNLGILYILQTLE

[2] = molecular target: T1, Apoptotic protease-activating factor 1; assay: SAR analysis of small molecule Activators of Apaf-1 in a Fluorescent assay.; details: read-out: EC50_Mean
[3] = SAR analysis of small molecule activators of Apaf-1 using a LZ-Caspase-9/Caspase-3 Fluorescent Selectivity assay - Set 2.; details: read-out: EC50_Mean
[4] = molecular target: Homeodomain-interacting protein kinase 2 (Homo sapiens, UniProt Q9H2X6);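 further: measured within a kinome-wide kinase profiling panel, HIPK2 being one panel member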
Chain of Homeodomain-interacting protein kinase 2 (Q9H2X6 whole entry): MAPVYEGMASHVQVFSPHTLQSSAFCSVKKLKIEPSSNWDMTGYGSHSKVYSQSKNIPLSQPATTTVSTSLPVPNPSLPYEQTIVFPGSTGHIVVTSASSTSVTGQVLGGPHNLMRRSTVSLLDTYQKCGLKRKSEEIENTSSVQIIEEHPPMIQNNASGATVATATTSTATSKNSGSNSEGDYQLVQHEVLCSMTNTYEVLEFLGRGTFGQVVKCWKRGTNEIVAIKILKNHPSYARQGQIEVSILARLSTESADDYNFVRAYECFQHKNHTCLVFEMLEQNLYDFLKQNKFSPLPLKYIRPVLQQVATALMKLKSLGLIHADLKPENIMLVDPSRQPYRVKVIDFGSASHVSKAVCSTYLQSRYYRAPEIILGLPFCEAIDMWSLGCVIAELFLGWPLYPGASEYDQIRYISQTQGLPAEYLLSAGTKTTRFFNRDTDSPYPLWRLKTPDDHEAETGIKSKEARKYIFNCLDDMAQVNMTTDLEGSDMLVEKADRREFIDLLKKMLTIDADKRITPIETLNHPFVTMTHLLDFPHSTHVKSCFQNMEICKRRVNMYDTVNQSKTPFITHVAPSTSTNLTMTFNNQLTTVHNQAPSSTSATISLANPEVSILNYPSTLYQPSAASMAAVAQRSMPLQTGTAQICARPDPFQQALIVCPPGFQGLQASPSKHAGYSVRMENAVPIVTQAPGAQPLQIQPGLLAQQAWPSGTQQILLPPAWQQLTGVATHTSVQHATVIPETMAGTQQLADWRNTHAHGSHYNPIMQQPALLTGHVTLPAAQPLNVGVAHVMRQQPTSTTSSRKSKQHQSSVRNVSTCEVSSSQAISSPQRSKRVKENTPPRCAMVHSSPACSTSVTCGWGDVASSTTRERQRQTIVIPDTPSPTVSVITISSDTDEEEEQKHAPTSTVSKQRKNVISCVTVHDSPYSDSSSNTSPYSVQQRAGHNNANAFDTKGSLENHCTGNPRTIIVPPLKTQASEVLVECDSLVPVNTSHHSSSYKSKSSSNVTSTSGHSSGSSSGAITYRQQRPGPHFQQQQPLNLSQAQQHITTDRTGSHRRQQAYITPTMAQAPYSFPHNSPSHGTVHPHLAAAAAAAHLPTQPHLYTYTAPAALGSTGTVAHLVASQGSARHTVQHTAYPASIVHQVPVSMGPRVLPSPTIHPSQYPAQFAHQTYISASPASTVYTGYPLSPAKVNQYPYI

[5] = molecular target: Serine/threonine-protein kinase pim-1 (Homo sapiens, UniProt P11309)
Chain of Serine/threonine-protein kinase pim-1 (P11309 whole entry): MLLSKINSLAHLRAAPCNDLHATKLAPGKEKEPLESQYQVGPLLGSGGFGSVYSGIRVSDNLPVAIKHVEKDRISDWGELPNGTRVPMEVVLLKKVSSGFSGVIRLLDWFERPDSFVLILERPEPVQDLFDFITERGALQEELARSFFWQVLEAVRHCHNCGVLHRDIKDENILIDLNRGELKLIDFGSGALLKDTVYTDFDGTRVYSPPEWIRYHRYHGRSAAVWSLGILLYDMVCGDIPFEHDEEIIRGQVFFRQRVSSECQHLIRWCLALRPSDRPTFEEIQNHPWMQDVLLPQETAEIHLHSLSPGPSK

[6] = molecular target: Cell division cycle 7-related protein kinase (Homo sapiens, UniProt O00311);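 further: value obtained from a kinome-wide kinase panel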
Chain of Cell division cycle 7-related protein kinase (O00311 whole entry): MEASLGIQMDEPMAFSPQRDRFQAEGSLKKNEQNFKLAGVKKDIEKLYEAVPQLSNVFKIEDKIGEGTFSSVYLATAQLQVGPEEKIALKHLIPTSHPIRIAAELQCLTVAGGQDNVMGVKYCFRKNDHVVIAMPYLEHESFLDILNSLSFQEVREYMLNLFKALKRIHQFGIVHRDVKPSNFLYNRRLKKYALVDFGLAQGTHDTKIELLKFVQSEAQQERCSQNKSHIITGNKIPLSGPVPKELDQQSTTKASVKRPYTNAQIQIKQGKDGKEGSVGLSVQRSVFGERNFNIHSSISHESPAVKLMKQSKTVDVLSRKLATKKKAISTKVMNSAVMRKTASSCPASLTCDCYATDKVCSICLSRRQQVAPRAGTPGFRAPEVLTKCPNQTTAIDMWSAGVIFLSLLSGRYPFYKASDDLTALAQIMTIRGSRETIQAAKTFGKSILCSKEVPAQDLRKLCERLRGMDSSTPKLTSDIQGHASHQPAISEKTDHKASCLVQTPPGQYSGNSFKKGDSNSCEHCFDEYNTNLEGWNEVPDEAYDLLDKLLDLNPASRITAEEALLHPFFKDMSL

[7] = molecular target: cAMP-dependent protein kinase catalytic subunit alpha (Homo sapiens, UniProt P17612)
[8] = molecular target: Cyclin-dependent kinase 9 (Homo sapiens, UniProt P50750);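 further: value from the CDK9 entry of a kinome-spanning kinase panel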
[9] = molecular target: Mitogen-activated protein kinase kinase kinase kinase 4 (Homo sapiens, UniProt O95819)
Chain of Mitogen-activated protein kinase kinase kinase kinase 4 (O95819 whole entry): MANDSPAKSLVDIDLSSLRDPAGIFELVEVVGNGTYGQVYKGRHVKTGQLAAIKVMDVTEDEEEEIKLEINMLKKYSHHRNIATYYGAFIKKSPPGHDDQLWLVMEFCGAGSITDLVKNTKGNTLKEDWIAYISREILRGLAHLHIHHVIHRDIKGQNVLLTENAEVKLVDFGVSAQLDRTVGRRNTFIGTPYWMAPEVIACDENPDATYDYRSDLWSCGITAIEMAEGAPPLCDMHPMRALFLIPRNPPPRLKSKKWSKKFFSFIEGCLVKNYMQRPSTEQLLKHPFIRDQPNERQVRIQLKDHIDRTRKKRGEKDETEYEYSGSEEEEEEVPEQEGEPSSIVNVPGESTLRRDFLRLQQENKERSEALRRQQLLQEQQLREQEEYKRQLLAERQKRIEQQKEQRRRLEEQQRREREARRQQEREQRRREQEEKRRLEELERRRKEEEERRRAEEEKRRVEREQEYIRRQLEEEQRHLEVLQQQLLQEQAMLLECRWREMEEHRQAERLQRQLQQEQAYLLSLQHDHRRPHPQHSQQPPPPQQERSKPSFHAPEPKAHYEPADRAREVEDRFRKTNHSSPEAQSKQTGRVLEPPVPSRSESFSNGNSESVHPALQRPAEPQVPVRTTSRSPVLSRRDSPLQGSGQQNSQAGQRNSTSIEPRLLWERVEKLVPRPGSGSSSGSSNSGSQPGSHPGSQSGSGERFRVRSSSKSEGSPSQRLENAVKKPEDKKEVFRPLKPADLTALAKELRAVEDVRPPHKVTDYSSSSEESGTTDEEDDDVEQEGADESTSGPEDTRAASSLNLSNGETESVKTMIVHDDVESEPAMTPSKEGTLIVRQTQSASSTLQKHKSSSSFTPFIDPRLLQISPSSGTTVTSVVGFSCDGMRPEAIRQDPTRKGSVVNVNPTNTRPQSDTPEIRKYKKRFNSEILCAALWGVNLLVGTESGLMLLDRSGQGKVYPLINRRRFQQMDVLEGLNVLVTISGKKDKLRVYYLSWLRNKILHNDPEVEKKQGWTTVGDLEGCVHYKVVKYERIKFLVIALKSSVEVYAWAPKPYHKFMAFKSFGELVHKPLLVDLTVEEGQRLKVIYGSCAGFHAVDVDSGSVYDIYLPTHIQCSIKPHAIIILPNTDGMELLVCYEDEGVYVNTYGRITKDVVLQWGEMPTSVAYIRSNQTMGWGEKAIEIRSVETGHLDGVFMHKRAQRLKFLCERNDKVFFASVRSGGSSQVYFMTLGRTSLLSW

[10] = molecular target: Dual specificity protein kinase CLK4 (Homo sapiens, UniProt Q9HAZ1)
Chain of Dual specificity protein kinase CLK4 (Q9HAZ1 whole entry): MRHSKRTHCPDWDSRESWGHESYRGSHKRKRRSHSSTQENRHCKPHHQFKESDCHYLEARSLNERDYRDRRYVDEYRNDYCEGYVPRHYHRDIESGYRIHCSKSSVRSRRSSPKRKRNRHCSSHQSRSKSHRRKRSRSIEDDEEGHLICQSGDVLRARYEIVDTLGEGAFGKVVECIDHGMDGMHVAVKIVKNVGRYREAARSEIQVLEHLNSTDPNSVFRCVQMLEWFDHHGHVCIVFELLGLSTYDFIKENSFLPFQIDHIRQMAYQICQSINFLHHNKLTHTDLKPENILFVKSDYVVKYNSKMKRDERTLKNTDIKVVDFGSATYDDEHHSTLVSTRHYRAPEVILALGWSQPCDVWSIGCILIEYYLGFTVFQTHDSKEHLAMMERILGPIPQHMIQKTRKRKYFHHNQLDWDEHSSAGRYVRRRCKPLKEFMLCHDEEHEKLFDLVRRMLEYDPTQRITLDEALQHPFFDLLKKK

[11] = molecular target: Cyclin-dependent kinase 7 (Homo sapiens, UniProt P50613);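 further: value comes from a kinome-wide kinase profiling panel in which CDK7 is one member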
[12] = molecular target: Interleukin-1 receptor-associated kinase 4 (Homo sapiens, UniProt Q9NWZ3)
[13] = molecular target: MAP kinase-interacting serine/threonine-protein kinase 2 (Homo sapiens, UniProt Q9HBH9)
[14] = molecular target: Glycogen synthase kinase-3 beta (Homo sapiens, UniProt P49841);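 further: value comes from a broad kinome profiling panel, with GSK3B as the panel member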
[15] = molecular target: DNA dC->dU-editing enzyme APOBEC-3A (Homo sapiens, UniProt P31941); assay: SAR analysis of small molecule inhibitors of APOBEC3A DNA Deaminase via a fluorescence-based single-stranded DNA deaminase assay.; details: read-out: IC50_Mean
[16] = molecular target: DNA dC->dU-editing enzyme APOBEC-3G (Homo sapiens, UniProt Q9HC16); assay: APOBEC3G deaminase inhibitors, SAR follow-up, biochemical, fluorescence, single-stranded DNA substrate (AID 602136); details: read-out: IC50_Mean
[17] = molecular target: G protein-coupled receptor kinase 5 (Homo sapiens, UniProt P34947); assay: Navigating the Kinome. Panel member name: GPRK5
[18] = molecular target: Casein kinase I isoform alpha (Homo sapiens, UniProt P48729)
[19] = molecular target: Mitogen-activated protein kinase kinase kinase kinase 2 (Homo sapiens, UniProt Q12851);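 further: measured as one member of a kinome-wide kinase panel, with MAP4K2 as the panel entry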
[20] = molecular target: Mitogen-activated protein kinase kinase kinase kinase 5 (Homo sapiens, UniProt Q9Y4K4);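 further: measured as one member of a kinome-spanning kinase panel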
Chain of Mitogen-activated protein kinase kinase kinase kinase 5 (Q9Y4K4 whole entry): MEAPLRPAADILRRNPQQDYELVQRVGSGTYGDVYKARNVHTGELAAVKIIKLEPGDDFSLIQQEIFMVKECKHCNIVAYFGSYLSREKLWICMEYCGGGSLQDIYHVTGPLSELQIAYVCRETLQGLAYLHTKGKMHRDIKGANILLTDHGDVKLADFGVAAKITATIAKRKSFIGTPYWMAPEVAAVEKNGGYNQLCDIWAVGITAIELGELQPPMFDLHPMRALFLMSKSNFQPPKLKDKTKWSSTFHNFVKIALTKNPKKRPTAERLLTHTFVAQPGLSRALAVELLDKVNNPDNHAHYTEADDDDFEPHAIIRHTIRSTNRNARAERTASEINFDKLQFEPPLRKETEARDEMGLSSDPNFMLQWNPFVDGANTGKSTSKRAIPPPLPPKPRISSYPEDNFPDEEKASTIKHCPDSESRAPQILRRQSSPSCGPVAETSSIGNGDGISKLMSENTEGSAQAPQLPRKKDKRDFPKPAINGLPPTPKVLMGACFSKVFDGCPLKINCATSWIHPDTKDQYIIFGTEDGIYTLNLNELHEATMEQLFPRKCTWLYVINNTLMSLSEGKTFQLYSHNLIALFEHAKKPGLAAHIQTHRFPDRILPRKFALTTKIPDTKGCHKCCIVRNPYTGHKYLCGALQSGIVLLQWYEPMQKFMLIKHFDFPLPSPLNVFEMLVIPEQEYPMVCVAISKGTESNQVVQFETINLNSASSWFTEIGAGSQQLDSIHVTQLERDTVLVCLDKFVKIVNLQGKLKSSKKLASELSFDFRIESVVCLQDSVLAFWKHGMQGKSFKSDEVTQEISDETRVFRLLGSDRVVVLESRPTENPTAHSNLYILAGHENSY

[21] = molecular target: Mast/stem cell growth factor receptor Kit (Homo sapiens, UniProt P10721);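 further: KIT entry within a kinase panel assay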
[22] = molecular target: Tyrosine-protein kinase Blk (Homo sapiens, UniProt P51451);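 further: obtained as one member of a kinome-wide kinase assay panel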
[23] = molecular target: Mitogen-activated protein kinase 13 (Homo sapiens, UniProt O15264)
Chain of Mitogen-activated protein kinase 13 (O15264 whole entry): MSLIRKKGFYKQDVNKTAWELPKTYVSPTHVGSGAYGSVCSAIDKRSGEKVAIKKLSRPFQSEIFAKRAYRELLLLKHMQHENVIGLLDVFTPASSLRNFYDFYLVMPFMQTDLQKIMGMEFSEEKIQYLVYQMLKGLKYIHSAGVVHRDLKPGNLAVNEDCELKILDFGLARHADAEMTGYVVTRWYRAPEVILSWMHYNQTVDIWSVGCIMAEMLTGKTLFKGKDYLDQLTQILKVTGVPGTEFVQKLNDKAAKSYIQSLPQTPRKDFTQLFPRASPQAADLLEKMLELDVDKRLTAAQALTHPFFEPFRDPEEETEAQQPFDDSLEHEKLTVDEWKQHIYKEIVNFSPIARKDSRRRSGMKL

For Cc1nn(CC(C)C(=O)O)c(C)c1Br (centres undefined), the EC50 [1] was 4.75 µM (active) and 3.41 µM (active) and 12.7 µM (active), the EC50 [2] was 5130 nM (active) and the EC50 [3] was > 100 µM (inactive) and > 99 µM (inactive).
In the case of CN(C)c1cc(-c2ccncc2)cc2[nH]nc(N)c12, the Ki [4] was 2000 nM (active), the Ki [5] was 5010 nM (active) and the Ki [6] was 12.6 nM (active). For the same compound, the Ki [7] was 501 nM (active), the Ki [8] was 100 nM (active) and the Ki [9] was 100 nM (active). For the same compound, the Ki [10] was 12.6 nM (active), the Ki [11] was 200 nM (active) and the Ki [12] was 398 nM (active). The Ki [13] was 126 nM (active) and the Ki [14] was 1260 nM (active).
With CCCn1c(=O)c2ccc(C(=O)NC(C)C)cc2n2c(=O)n(Cc3c(F)cccc3Cl)nc12 the IC50 [15] was > 99000 nM (inactive) and the IC50 [16] was > 99000 nM (inactive).
For NS(=O)(=O)OCC1CC(n2ccc3c(NC4CCc5ccccc54)ncnc32)CC1O (centres undefined), the Ki [17] was 2510 nM (active) and the Ki [18] was 3160 nM (active).
With CC1(O)CC(c2nc(-c3ccc4ccc(-c5ccccc5)nc4c3)c3c(N)nccn23)C1 (centres undefined) the Ki [19] was 794 nM (active), the Ki [20] was 316 nM (active) and the Ki [21] was > 1260 nM (inactive). For the same compound, the Ki [6] was > 1260 nM (inactive), the Ki [22] was 316 nM (active) and the Ki [23] was > 7940 nM (inactive).
